Measurements from patent US20230131899A1, “INHIBITORS OF MICROBIALLY INDUCED AMYLOID” (Axial Therapeutics, Inc., priority 2020, published 2023).
Like-named read-outs stand apart in the source and are kept apart here.

Key:
E. coli CsgA = target: T1, E. coli CsgA (Escherichia coli, UniProt P28307); test: In vitro ThioflavinT assay of CsgA aggregation (CsgA ThT Assay); format: biochemical
T1 construct: made in house; host or cells: E. coli NEB 3016 slyD::kan, pET11d
Outline: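 Purified C-terminal His-tagged CsgA, monomerised by desalting and 30-kDa filtration, at 2-20 μM with 20-40 μM ThT in 50 mM potassium phosphate pH 7.3, 1% DMSO, compounds 3.125-200 uM; room temperature, fluorescence (ex 438/em 495 nm) read every 15 min. Background-subtracted signal expressed as percent inhibition versus vehicle at 6-6.5 or 8-9 h, or as percent control AUC.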

[1] = system: CsgA gene expression (csgBAC promoter-GFP reporter) in E. coli UTI89; test: In vitro live cell fluorescent reporter assay of CsgA transcription (Reporter Assay); format: cell-based; details: Escherichia coli
Outline: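 Compounds at 0.14–100 μM (1% DMSO final) incubated 20 h at 27 °C in YESCA broth with UTI89 carrying a single-copy GFP reporter under the csgBAC intergenic promoter region, inoculum OD600 0.003. Fluorescence normalized to vehicle wells gave IC50 and 50%-of-vehicle concentration; OD600 reduction >10% flagged growth impact.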

[2] = read-out: CsgA ThT Assay (10 μM CsgA) % Control AUC at 1005 minutes, 25 μM (activity range), CsgA 10 μM, black plates, compound 25 μM, 1005 minutes, class symbol
[3] = read-out: CsgA ThT Assay (10 μM CsgA) % Control AUC at 1005 minutes, 25 μM, mean AUC as % of DMSO control, CsgA 10 μM, black plates, compound 25 μM, 1005 minutes
[4] = read-out: CsgA ThT Assay (10 μM CsgA) % Control AUC at 1005 minutes, 100 μM (activity range), CsgA 10 μM, black plates, compound 100 μM, 1005 minutes, class symbol
[5] = read-out: CsgA ThT Assay (10 μM CsgA) % Control AUC at 1005 minutes, 100 μM, mean AUC as % of DMSO control, CsgA 10 μM, black plates, compound 100 μM, 1005 minutes
[6] = read-out: Reporter Assay Abs IC50 (activity range), median Abs IC50 in the CsgA reporter assay, class symbol
[7] = read-out: Reporter Assay Abs IC50 (μM), median Abs IC50 in the CsgA reporter assay, N/A = maximum expression reduction is <50% of control
[8] = read-out: CsgA ThT Assay (2 μM CsgA) % Control Bmax 25 μM, activity range, class symbol, CsgA 2 μM, white plates, compound 25 μM
[9] = read-out: CsgA ThT Assay (2 μM CsgA) % Control Bmax 25 μM, mean Bmax as percentage of DMSO control, CsgA 2 μM, white plates, compound 25 μM
[10] = read-out: CsgA ThT Assay (2 μM CsgA) % Control Bmax 100 μM, activity range, class symbol, CsgA 2 μM, white plates, compound 100 μM
[11] = read-out: CsgA ThT Assay (2 μM CsgA) % Control Bmax 100 μM, mean Bmax as percentage of DMSO control, CsgA 2 μM, white plates, compound 100 μM
[12] = read-out: Reporter Assay Abs IC50, activity range, class symbol

T1 sequence (P28307 23-151): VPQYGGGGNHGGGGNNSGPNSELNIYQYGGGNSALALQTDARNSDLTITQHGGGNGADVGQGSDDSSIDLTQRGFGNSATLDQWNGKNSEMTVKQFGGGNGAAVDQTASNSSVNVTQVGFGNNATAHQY

Row | SMILES | remaining activity at 25 µM (E. coli CsgA; [2]) [%] | remaining activity at 25 µM (E. coli CsgA; [3]) [%] | remaining activity at 100 µM (E. coli CsgA; [4]) [%] | remaining activity at 100 µM (E. coli CsgA; [5]) [%] | IC50 [1, 6] [µM] | IC50 [1, 7] [µM] | CsgA ThT Assay (10 μM CsgA) % Control AUC at 1005 minutes, 25 μM (activity range) (E. coli CsgA; CsgA 10 μM, black plates, compound 25 μM, 1005 minutes, class symbol) | remaining activity at 25 µM (E. coli CsgA; [8]) [%] | remaining activity at 25 µM (E. coli CsgA; [9]) [%] | remaining activity at 100 µM (E. coli CsgA; [10]) [%] | remaining activity at 100 µM (E. coli CsgA; [11]) [%] | IC50 [1, 12] [µM] | CsgA ThT Assay (10 μM CsgA) % Control AUC at 1005 minutes, 100 μM (E. coli CsgA; mean AUC as % of DMSO control, CsgA 10 μM, black plates, compound 100 μM, 1005 minutes) [%]
1 | O=C(O)C1CN(CCCCO)S(=O)(=O)c2c(-c3cccc(C(F)(F)F)c3)c(Cc3cccc4ccccc34)cc(=O)n21 (stereo not drawn) [Compound 085, 2-(4-hydroxybutyl)-8-(naphthalen-1-ylmethyl)-6-oxo-9-(3-(trifluoromethyl)phenyl)-3,4-dihydro-2H,6H-pyrido[1,2-e][1,2,5]thiadiazine-4-carboxylic acid 1,1-dioxide] | 31 to 60 | 52 | 11 to 31 | 18 | > 10 | 15.3 |  |  |  |  |  |  | 
2 | CCCN1CC(C(=O)O)n2c(c(-c3cccc(C(F)(F)F)c3)c(Cc3cccc4ccccc34)cc2=O)S1(=O)=O (single isomer, unassigned) [Compound 016a, 8-(naphthalen-1-ylmethyl)-6-oxo-2-propyl-9-(3-(trifluoromethyl)phenyl)-3,4-dihydro-2H,6H-pyrido[1,2-e][1,2,5]thiadiazine-4-carboxylic acid 1,1-dioxide] |  | 21 | 11 to 31 | 14 | 4.6 to 10 | 8.3 | (+++) (% control AUC of 11 to 31%) |  |  |  |  |  | 
3 | CCCc1c(Cc2cccc3ccccc23)c(-c2cccc(C(F)(F)F)c2)c2n(c1=O)C(C(=O)O)CN(C)S2(=O)=O (stereo not drawn) [Compound 090, 2-methyl-8-(naphthalen-1-ylmethyl)-6-oxo-7-propyl-9-(3-(trifluoromethyl)phenyl)-3,4-dihydro-2H,6H-pyrido[1,2-e][1,2,5]thiadiazine-4-carboxylic acid 1,1-dioxide] | 31 to 60 | 54 | 11 to 31 | 30 | 4.6 to 10 | 5.9 |  |  |  |  |  |  | 
4 | CCN1CC(C(=O)O)n2c(c(-c3cccc(C(F)(F)F)c3)c(Cc3cccc4ccccc34)c(N)c2=O)S1(=O)=O (stereo not drawn) [Compound 092, 7-amino-2-ethyl-8-(naphthalen-1-ylmethyl)-6-oxo-9-(3-(trifluoromethyl)phenyl)-3,4-dihydro-2H,6H-pyrido[1,2-e][1,2,5]thiadiazine-4-carboxylic acid 1,1-dioxide] | > 60 | 64 | 31 to 60 | 52 | > 10 | 18.8 |  |  |  |  |  |  | 
5 | CCCCCN1CC(C(=O)O)n2c(c(-c3cccc(C(F)(F)F)c3)c(Cc3cccc4ccccc34)c(N)c2=O)S1(=O)=O (stereo not drawn) [Compound 094, 7-amino-8-(naphthalen-1-ylmethyl)-6-oxo-2-pentyl-9-(3-(trifluoromethyl)phenyl)-3,4-dihydro-2H,6H-pyrido[1,2-e][1,2,5]thiadiazine-4-carboxylic acid 1,1-dioxide] | 31 to 60 | 51 | 11 to 31 | 30 | 1.3 to 4.5 | 1.9 |  |  |  |  |  |  | 
6 | CC(C)CN1CC(C(=O)O)n2c(c(-c3cccc(C(F)(F)F)c3)c(Cc3cccc4ccccc34)c(NC3CCCC3)c2=O)S1(=O)=O (stereo not drawn) [Compound 145, 7-(cyclopentylamino)-2-isobutyl-8-(naphthalen-1-ylmethyl)-6-oxo-9-(3-(trifluoromethyl)phenyl)-3,4-dihydro-2H,6H-pyrido[1,2-e][1,2,5]thiadiazine-4-carboxylic acid 1,1-dioxide] |  |  |  |  |  | 2 |  | > 60 | 76 | 31 to 60 | 39 | 1.3 to 4.5 | 
7 | CCCN1CC(C(=O)O)n2c(c(-c3cccc(C(F)(F)F)c3)c(Cc3cccc4ccccc34)c(C3CC3)c2=O)S1(=O)=O (stereo not drawn) [Compound 132, 7-cyclopropyl-8-(naphthalen-1-ylmethyl)-6-oxo-2-propyl-9-(3-(trifluoromethyl)phenyl)-3,4-dihydro-2H,6H-pyrido[1,2-e][1,2,5]thiadiazine-4-carboxylic acid 1,1-dioxide] |  |  |  |  |  | 2.4 |  | > 60 | 76 | > 60 | 122 | 1.3 to 4.5 | 
8 | CCc1c(Cc2cccc3ccccc23)c(-c2cccc(C(F)(F)F)c2)c2n(c1=O)C(C(=O)O)CN2C (stereo not drawn) [Compound 136, 6-ethyl-1-methyl-7-(naphthalen-1-ylmethyl)-5-oxo-8-(3-(trifluoromethyl)phenyl)-1,2,3,5-tetrahydroimidazo[1,2-a]pyridine-3-carboxylic acid] |  |  |  |  |  | 3.5 |  | > 60 | 77 | 11 to 31 | 27 | 1.3 to 4.5 | 
9 | O=C(O)C1CNc2c(-c3cccc(C(F)(F)F)c3)c(C(F)(F)c3cccc4ccccc34)cc(=O)n21 (stereo not drawn) [Compound 134, 7-(difluoro(naphthalen-1-yl)methyl)-5-oxo-8-(3-(trifluoromethyl)phenyl)-1,2,3,5-tetrahydroimidazo[1,2-a]pyridine-3-carboxylic acid] |  |  |  |  |  | 15.6 |  | > 60 | 92 | > 60 | 66 | > 10 | 
10 | CN(C)Cc1c(Cc2cccc3ccccc23)c(-c2cccc(C(F)(F)F)c2)c2n(c1=O)C(C(=O)O)CN(C)S2(=O)=O (stereo not drawn) [Compound 108, 7-((dimethylamino)methyl)-2-methyl-8-(naphthalen-1-ylmethyl)-6-oxo-9-(3-(trifluoromethyl)phenyl)-3,4-dihydro-2H,6H-pyrido[1,2-e][1,2,5]thiadiazine-4-carboxylic acid 1,1-dioxide] | 11 to 31 | 14 | 11 to 31 | 25 | < 1.3 | 0.6 |  |  |  |  |  |  | 
11 | CN1CC(C(=O)O)n2c(c(-c3cccc(C(F)(F)F)c3)c(Cc3cccc4ccccc34)c(NC3CCOCC3)c2=O)S1(=O)=O (stereo not drawn) [Compound 072, 2-methyl-8-(naphthalen-1-ylmethyl)-6-oxo-7-((tetrahydro-2H-pyran-4-yl)amino)-9-(3-(trifluoromethyl)phenyl)-3,4-dihydro-2H,6H-pyrido[1,2-e][1,2,5]thiadiazine-4-carboxylic acid 1,1-dioxide] | 11 to 31 | 24 | < 10 | 10 | 4.6 to 10 | 6.9 |  |  |  |  |  |  | 
12 | C=Cc1c(Cc2cccc3ccccc23)c(-c2cccc(C(F)(F)F)c2)c2n(c1=O)C(C(=O)O)CN(C)S2(=O)=O (stereo not drawn) [Compound 078, 2-methyl-8-(naphthalen-1-ylmethyl)-6-oxo-9-(3-(trifluoromethyl)phenyl)-7-vinyl-3,4-dihydro-2H,6H-pyrido[1,2-e][1,2,5]thiadiazine-4-carboxylic acid 1,1-dioxide] | 11 to 31 | 19 | 11 to 31 | 12 | 4.6 to 10 | 5.1 |  |  |  |  |  |  | 
13 | CCCCN1CC(C(=O)O)n2c(c(-c3cccc(C(F)(F)F)c3)c(Cc3cccc4ccccc34)cc2=O)S1(=O)=O (single isomer, unassigned) [Compound 021a, 2-butyl-8-(naphthalen-1-ylmethyl)-6-oxo-9-(3-(trifluoromethyl)phenyl)-3,4-dihydro-2H,6H-pyrido[1,2-e][1,2,5]thiadiazine-4-carboxylic acid 1,1-dioxide] | 31 to 60 | 36 | > 60 |  | 1.3 to 4.5 | 3.3 |  |  |  |  |  |  | 73
